From patent US11413354B2, “N-acetylgalactosamino dendron-clearing agent for dota-pretargeted radioimmunotherapy” (priority 2018, dated 2022)

Legend:
[1] = tested on: SW1222 xenografts (anti-GPA33 PRIT); assay: Optimized PRIT+[^177Lu]LuDOTA-Bn including dextran-CA (Cheal et al. 2016): dosimetry and therapy; format: in vivo, mice; settings: with dextran-CA; bone marrow as dose-limiting organ
Text: See Cheal et al., Eur J Nucl Med Mol Imaging 43: 925 (2016). […] Cheal et al., Eur J Nucl Med Mol Imaging 43: 925 (2016).
Based on human normal-tissue radiation dose tolerance estimates derived from clinical observations (Marks, et al., Int J Radiat Oncol Biol Phys. 76:S10-9 (2010)) the maximum tolerated doses (MTDs) are 250 cGy for bone marrow, 1,500 cGy for lung, 3,000 cGy for liver, and 2,000 cGy for kidney. […] At this activity, the estimated absorbed dose delivered to tumor would be 18,292 cGy (183 Gy), with 250 cGy to blood (marrow) and 1,473 cGy to kidney.

[2] = tested on: GPA33-expressing SW1222 xenografts; assay: Absorbed dose estimates for PRIT+[^177Lu]LuDOTA-Bn including dendron-CA CCA-16-DOTA-Y^3+; format: in vivo, nude mice; settings: with dendron-CA; bone marrow as dose-limiting organ
Method: Absorbed dose estimates for PRIT+[^177Lu]LuDOTA-Bn including dendron-CA CCA-16-DOTA-Y^3+: In order to calculate absorbed doses for PRIT+[[…]]LuDOTA-Bn including dendron-CA (the clearing agent of the present technology), groups of nude mice bearing GPA33-expressing SW1222 xenografts (n=5/group) were injected i.v. with the BsAb huA33-C825 (250 μg; 1.19 nmol) 28 h prior and i.v. with dendron-clearing agent CCA-16-DOTA-Y^3+ (25 μg; 2.76 nmol) 4 h prior to administration of [^177Lu]LuDOTA-Bn (20 pmol, 3.7 MBq [100 μCi]). These mice were sacrificed at 1, 4, 24, or 48 h p.i. of [^177Lu]LuDOTA-Bn for biodistribution assay. For each tissue, the non-decay-corrected time-activity concentration data were fitted using Excel to a 1-component, 2-component, or more complex exponential function as appropriate, and analytically integrated to yield the cumulated activity concentration per unit administered activity (MBq-h/g per MBq). The ^177Lu equilibrium dose constant for non-penetrating radiations (8.49 g-cGy/MBq-h) was used to estimate the tumor-to-tumor and select organ-to-organ self-absorbed doses, assuming complete local absorption of the ^177Lu beta rays only, and ignoring the gamma ray and non-self dose contributions.

[3] = tested on: SW1222 tumor (same animal model); settings: 24 h p.i.; 1.85-8.8 MBq, 10-50 pmol; cited from earlier work
[4] = tested on: SW1222 xenografts (anti-GPA33 PRIT); settings: with dextran-CA, cited from earlier work

With “^177Lu-aminobenzylDOTA [[^177Lu]LuDOTA-Bn]” as the substance, how does the “maximum tolerated pretargeted activity” value [1] read?
The value was 278 MBq.

What about the “maximum tolerated pretargeted activity” value [2] of the same substance?
Its value is 21 MBq.

And the mean tumor uptake [3]?
Its mean tumor uptake is ~8 % ID/g.

What about the CR frequency ([4]; 111.0 MBq delivered in a fractionated dose strategy) of the same substance?
Its CR frequency is 100%.

And the “survival beyond 140 days” value ([4]; 111.0 MBq fractionated)?
Its value is “two of nine mice”.

And the treatment-related toxicity ([4]; effective treatment)?
Its treatment-related toxicity is “no major treatment-related toxicities observed”.
